Target: deoxyribonucleic acid (derived from salmon sperm) with a length of 500 to 1000 bp
Assay: DNA binding assay of fluorescent dyes (fluorescence titration, fit to McGhee-von Hippel equation)
Conditions: TE buffer (pH: 8.0); dye 200, 400, 800 nM; DNA 0.5-12 µM; excitation 475 nm, emission 520 nm; read-out: Dissociation constant Kd

Kd: 1000 ± 90 nM
Compound: CCCN(CCCN(C)C)c1cc(/C=C2/Sc3ccccc3N2C)c2ccccc2[n+]1-c1ccccc1

Source: patent EP4674849A1, “FLUORESCENT DYE FOR DETECTING NUCLEIC ACID” (Keio University, priority 2023, dated 2024)
